Our source for the GI50 and IC50 values is patent US20230293535A1, “ERBB/BTK INHIBITORS” (Dizal (Jiangsu) Pharmaceutical Co., Ltd., priority 2018, published 2023).

Structures can show the parent of a compound that is named as a salt. Where two headings read alike, the source gives them in different places. A value given as a limit tells only on which side of the number the result lay.

What all share (format): cell-based
One assay relates to Ba/F3 EGFR ASV ins cells. In words: Cell proliferation, Ba/F3 EGFR ASV ins (CellTiter-Glo, 72 h).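 Further: IL3-independent Ba/F3 cells transduced with EGFR V769_D770insASV, cellular ATP luminescence after compound exposure, growth relative to DMSO control with the day-0 baseline reading subtracted.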 The note with it: Ba/F3 EGFR, 72 h.
A further assay has as its system WT EGFR cell line A-431. The assay can be described thus: Cell proliferation, WT EGFR A431 (CellTiter-Glo, 72 h).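 Further: proliferation from a luminescent ATP viability signal, expressed as 100 × (treated minus time-zero plate) over (DMSO control minus time-zero plate), cells grown with 10% FBS.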 The note with it: Homo sapiens, A-431, 72 h. On the technique in general: ATP-based viability assays read luminescence as a measure of living cells.
The test system of assay [1] is Her2 exon 20 insertion YVMA transduced NIH-3T3 cell line. The assay can be described thus: Cell proliferation, Her2 YVMAins NIH-3T3 (CellTiter-Glo, 72 h).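 Further: viable cells quantified by ATP luminescence, growth over a day-zero baseline plate expressed as percent of DMSO control growth, compound dilution series in 10% FBS medium.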 The following applies: Mus musculus, NIH3T3, 72 h, Her2 YVMAins cells, 72 h proliferation; read-out: Her2 Exon 20 YVMA insertion GI50.
Assay [2] concerns NCI-H1975 EGFR L858R/T790M cells. The assay can be described thus: Cell proliferation, NCI-H1975 EGFR L858R/T790M (CellTiter-Glo, 72 h).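 Further: viable cells quantified by luciferase-based ATP luminescence, proliferation expressed relative to DMSO-treated wells (100%) after subtracting a parallel plate read at the time of dosing.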 The following applies: Homo sapiens, NCI-H1975, 72 h.
A further assay addresses T1, EGFR L858R&T790M (Homo sapiens, UniProt P00533, L858R/T790M).
T1 construct: host or cells: NCI-H1975
In words: EGFR L858R and T790M cellular phosphorylation inhibition in NCI-H1975 (MSD).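 Further: phosphorylated and total EGFR detected by electrochemiluminescence, cells exposed to compound in medium containing 1% FBS at 37 °C.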 The note with it: NCI-H1975 cells, 4 h compound, p-EGFR(Y1068)/total EGFR; read-out: EGFR L858R and T790M mutation IC50.

The target in assay [3] is T2, human Her2 exon 20 insertion mutation YVMA (Homo sapiens, UniProt P04626, INS775YVMA).
T2 construct: expressed in transfected cells; host or cells: NIH-3T3, lentiviral transduction, puromycin selection
The assay can be described thus: Her2 Exon 20 YVMA insertion cellular phosphorylation inhibition (MSD p-Her2 Y1248/total Her2).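 Further: lentivirally transduced NIH-3T3 cells in 1% FBS medium, electrochemiluminescent MSD read-out, graded compound concentrations at 37 °C.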 The following applies: Her2 YVMAins cells, 4 h compound.

A further assay has as its system Ba/F3 EGFR NPH ins cells. In words: Cell proliferation, Ba/F3 EGFR NPH ins (CellTiter-Glo, 72 h).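 Further: IL3-independent cells carrying constitutively phosphorylated EGFR, compound dilution series, viable cells quantified by ATP luminescence, growth relative to DMSO wells after subtracting pre-dosing (day 0) baseline.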 The following applies: Ba/F3 EGFR, 72 h.
The target in another assay is T3, WT EGFR (Homo sapiens, UniProt P00533).
T3 construct: host or cells: A-431
In words: WT EGFR cellular phosphorylation inhibition in A-431 (hEGF stimulated, MSD).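 Further: electrochemiluminescence read-out of EGFR Tyr1068 phosphorylation expressed as ratio to total EGFR, cells kept in medium with 1% FBS, compounds tested as a concentration series.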 The note with it: A431 cells, 4 h compound, then 100 ng/ml hEGF 10 min.

For assay [4], the target named is T4, human EGFR exon 20 H773_V774insNPH (Homo sapiens, UniProt P00533, INS773NPH).
T4 construct: host or cells: Ba/F3
In words: EGFR Exon20 NPH insertion cellular phosphorylation inhibition (MSD pEGFR Y1068/total EGFR).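 Further: IL3-independent Ba/F3 cells with constitutively phosphorylated EGFR, compound exposure at 37 °C under 5% CO2, electrochemiluminescent MSD measurement of the p-EGFR to total EGFR ratio.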 The following applies: Ba/F3 EGFR NPH ins cells, 4 h compound, p-EGFR(Y1068)/total EGFR.

Assay [5] addresses T5, human EGFR exon 20 V769_D770insASV (Homo sapiens, UniProt P00533, INS769ASV).
T5 construct: expressed in transfected cells; host or cells: Ba/F3 (DSMZ ACC-300), lentiviral transduction, puromycin selection, IL3 depletion
In words: EGFR Exon20 ASV insertion cellular phosphorylation inhibition (MSD pEGFR Y1068/total EGFR).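 Further: electrochemiluminescent readout on an MSD SECTOR Imager, IL3-independent transduced cells in medium with 1% FBS, compound concentration series at 37 °C and 5% CO2.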 The following applies: Ba/F3 EGFR ASV ins cells, 4 h compound, p-EGFR(Y1068)/total EGFR.

Another assay has as its system DB cells. In words: BTK (wt) cell proliferation, DB (CellTiter-Glo, 72 h).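 Further: DB cells in 384-well plates given a dilution series of compound, viable cells read by ATP luminescence, growth expressed versus DMSO control after subtracting a time-zero plate reading.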 The following applies: Homo sapiens, DB, DB cells, CellTiter-Glo, read-out: Non-BCR activated DB GI50.
For a further assay, the system named is TMD-8 cells. In words: BTK (wt) cell proliferation, TMD-8 (CellTiter-Glo, 72 h).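 Further: viable cells quantified by ATP-based luminescence, proliferation expressed as percent of DMSO control after subtracting a time-zero baseline plate read at dosing.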 The note with it: Homo sapiens, TMD8, 72 h, TMD-8 cells, 72 h, CellTiter-Glo; read-out: BTK WT TMD-8 GI50.
The test system of a further assay is Ri-1 cells. In words: BTK (wt) cell proliferation, Ri-1 (CellTiter-Glo, 72 h).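 Further: viable cells quantified as cellular ATP luminescence, proliferation normalized to a time-zero plate and the DMSO control, compounds tested across a dilution series.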 The following applies: Ri-1, 72 h, Ri-1 cells, 72 h, CellTiter-Glo; read-out: BTK WT Ri-1 GI50.
A further assay has as its system OCI-LY-10 cells. The assay can be described thus: BTK (wt) cell proliferation, OCI-LY-10 (CellTiter-Glo, 72 h).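 Further: viable cells quantified via cellular ATP luminescence, proliferation given as percent of DMSO control after subtracting a duplicate plate read at time of dosing.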 The note with it: Homo sapiens, OCI-Ly10, 72 h, OCI-LY-10 cells, 72 h, CellTiter-Glo; read-out: BTK WT OCI-LY-10 GI50.
Setting [6] is: Ba/F3 EGFR ASV ins, 72 h proliferation, read-out: EGFR Exon20 ASV insertion GI50.
Setting [7] is: A431, 72 h proliferation, read-out: EGFR WT A431 GI50.
[8] abbreviates: NCI-H1975, 72 h proliferation, read-out: EGFR L858R and T790M mutation GI50.
The mark [9] stands for this setting: Ba/F3 EGFR NPH ins, 72 h proliferation, read-out: EGFR Exon20 NPH insertion GI50.

T4 sequence (P00533 with tags, fused parts or gaps INS773NPH): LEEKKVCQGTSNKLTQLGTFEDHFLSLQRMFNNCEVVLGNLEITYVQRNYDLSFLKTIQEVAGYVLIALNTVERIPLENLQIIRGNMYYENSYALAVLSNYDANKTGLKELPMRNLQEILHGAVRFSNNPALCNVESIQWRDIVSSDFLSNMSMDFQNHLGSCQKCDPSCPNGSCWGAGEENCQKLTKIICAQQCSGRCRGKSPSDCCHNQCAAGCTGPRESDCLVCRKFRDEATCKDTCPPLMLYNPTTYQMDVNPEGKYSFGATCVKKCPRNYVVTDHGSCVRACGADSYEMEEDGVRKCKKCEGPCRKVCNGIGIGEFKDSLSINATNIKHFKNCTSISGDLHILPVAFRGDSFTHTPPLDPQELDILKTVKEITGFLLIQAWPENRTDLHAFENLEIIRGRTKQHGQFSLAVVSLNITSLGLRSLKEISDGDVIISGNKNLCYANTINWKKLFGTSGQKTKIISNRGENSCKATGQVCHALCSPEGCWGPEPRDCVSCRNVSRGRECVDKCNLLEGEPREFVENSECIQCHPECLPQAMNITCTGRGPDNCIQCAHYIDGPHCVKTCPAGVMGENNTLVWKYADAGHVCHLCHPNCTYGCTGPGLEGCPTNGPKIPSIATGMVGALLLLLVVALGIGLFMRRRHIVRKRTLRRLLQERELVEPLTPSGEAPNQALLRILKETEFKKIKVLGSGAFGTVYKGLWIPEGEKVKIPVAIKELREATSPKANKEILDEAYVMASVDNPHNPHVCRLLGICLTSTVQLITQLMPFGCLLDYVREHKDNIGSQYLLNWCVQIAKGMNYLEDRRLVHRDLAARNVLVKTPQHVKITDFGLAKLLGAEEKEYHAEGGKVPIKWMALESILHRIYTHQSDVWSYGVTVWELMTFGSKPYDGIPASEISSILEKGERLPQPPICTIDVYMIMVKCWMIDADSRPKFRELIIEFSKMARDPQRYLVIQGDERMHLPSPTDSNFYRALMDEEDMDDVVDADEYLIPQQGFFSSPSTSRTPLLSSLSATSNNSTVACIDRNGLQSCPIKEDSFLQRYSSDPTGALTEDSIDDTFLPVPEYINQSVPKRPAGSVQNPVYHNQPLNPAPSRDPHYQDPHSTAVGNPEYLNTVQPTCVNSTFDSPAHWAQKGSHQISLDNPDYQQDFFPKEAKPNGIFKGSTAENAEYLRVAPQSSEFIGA
T2 sequence (P04626 with tags, fused parts or gaps INS775YVMA): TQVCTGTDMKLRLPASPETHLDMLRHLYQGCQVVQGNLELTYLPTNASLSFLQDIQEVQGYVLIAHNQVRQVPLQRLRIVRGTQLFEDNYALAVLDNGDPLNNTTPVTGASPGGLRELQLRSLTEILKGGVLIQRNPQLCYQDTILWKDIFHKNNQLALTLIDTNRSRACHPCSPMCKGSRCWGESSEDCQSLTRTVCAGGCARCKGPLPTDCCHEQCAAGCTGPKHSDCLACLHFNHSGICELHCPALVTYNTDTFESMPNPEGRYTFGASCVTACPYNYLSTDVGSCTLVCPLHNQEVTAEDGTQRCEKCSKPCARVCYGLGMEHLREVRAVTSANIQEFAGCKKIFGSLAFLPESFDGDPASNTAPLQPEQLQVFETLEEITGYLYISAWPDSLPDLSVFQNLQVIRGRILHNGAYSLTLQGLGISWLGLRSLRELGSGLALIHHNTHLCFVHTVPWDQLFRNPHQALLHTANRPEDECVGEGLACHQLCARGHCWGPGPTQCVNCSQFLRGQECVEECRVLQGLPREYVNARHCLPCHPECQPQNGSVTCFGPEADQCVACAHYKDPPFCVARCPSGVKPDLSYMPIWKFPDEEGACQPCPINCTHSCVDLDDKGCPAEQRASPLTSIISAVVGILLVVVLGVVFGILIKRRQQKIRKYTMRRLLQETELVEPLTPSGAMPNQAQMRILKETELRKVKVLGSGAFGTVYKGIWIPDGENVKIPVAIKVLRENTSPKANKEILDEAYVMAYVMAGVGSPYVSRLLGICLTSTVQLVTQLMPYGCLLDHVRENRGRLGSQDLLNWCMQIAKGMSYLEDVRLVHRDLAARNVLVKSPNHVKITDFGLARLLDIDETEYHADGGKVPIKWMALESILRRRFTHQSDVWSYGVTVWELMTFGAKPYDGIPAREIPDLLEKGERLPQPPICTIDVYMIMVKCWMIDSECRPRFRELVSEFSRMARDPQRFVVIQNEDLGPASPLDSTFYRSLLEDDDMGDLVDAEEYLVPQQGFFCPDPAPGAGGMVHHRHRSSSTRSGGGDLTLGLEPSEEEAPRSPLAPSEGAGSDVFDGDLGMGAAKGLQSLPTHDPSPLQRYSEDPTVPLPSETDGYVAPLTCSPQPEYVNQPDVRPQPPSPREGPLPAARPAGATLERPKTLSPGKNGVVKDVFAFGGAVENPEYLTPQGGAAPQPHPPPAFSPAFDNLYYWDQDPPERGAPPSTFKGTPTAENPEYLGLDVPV
T5 sequence (P00533 with tags, fused parts or gaps INS769ASV): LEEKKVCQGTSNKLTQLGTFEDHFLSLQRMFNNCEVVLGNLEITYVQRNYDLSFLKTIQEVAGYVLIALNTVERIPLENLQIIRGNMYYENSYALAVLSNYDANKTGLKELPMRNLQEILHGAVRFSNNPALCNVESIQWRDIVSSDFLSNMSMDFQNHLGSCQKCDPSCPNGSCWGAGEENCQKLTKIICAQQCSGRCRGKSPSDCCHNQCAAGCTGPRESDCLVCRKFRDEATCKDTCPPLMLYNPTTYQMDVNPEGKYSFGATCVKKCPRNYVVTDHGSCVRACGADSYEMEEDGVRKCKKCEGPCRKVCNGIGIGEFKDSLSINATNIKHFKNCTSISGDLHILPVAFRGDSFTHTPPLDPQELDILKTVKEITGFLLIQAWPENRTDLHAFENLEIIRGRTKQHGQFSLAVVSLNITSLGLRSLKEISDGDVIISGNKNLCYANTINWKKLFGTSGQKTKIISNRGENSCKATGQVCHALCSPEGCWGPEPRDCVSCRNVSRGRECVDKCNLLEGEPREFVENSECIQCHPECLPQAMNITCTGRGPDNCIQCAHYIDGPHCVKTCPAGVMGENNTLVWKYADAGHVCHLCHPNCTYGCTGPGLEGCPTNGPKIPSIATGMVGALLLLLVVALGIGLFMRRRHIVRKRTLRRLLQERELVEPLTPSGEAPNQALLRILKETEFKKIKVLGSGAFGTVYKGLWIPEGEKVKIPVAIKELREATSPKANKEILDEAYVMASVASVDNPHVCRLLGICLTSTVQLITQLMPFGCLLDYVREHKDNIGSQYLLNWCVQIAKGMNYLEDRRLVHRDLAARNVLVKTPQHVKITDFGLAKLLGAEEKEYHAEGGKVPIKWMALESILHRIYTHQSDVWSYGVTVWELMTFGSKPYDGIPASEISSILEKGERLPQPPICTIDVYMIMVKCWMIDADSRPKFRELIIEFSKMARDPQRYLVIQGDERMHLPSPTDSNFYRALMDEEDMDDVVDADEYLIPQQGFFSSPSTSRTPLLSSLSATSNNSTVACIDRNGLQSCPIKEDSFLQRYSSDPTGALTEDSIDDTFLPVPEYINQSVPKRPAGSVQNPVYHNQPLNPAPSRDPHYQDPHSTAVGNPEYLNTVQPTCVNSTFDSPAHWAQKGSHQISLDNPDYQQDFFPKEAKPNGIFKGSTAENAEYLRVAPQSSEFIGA
T1 sequence (P00533 25-1210 T790M/L858R): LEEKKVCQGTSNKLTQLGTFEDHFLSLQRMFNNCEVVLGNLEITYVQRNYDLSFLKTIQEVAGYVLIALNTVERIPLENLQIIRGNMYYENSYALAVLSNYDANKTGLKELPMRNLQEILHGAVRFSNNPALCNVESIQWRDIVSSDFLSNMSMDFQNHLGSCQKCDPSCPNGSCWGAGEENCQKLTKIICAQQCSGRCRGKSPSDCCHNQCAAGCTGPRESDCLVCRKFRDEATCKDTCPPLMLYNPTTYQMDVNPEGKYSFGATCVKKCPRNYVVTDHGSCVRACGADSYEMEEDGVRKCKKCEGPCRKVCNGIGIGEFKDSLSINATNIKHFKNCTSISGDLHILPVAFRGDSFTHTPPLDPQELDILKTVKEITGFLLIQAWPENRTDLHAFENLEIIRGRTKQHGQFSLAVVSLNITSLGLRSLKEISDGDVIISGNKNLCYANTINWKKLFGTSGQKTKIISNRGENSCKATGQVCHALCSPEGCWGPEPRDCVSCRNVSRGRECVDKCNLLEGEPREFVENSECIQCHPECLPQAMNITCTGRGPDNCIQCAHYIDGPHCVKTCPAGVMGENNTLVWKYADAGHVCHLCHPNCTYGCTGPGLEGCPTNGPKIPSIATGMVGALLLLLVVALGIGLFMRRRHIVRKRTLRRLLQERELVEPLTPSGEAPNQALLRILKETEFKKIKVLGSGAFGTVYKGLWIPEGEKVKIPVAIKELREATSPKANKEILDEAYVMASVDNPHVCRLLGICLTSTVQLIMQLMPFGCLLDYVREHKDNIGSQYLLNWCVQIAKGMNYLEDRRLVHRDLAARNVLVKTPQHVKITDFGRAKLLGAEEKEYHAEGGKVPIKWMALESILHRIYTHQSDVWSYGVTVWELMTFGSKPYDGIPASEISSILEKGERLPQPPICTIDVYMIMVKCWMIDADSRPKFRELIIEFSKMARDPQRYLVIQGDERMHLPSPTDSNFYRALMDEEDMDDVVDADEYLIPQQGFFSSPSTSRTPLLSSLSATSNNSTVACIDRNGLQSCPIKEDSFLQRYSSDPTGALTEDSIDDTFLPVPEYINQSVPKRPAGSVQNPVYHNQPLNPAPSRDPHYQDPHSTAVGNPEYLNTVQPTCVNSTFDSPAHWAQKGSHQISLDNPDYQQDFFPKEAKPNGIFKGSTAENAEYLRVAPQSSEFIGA

Turning to `C=CC(=O)Nc1cc(Nc2ncnc(Nc3cc(F)c(F)cc3C(C)(O)CC)n2)c(OC)cc1N1CC[C@H]2CN(C)C[C@H]21` (stereo partly shown) [Compound 50, N-(5-(4-(4,5-difluoro-2-(2-hydroxybutan-2-yl)phenylamino)-1,3,5-triazin-2-ylamino)-4-methoxy-2-((3 aS, 6aS)-5-methylhexahydropyrrolo[3,4-b]pyrrol-1 (2H)-yl)phenyl) acrylamide], the GI50 (as a rule, the concentration at which growth is held to half of that of the control) with Ba/F3 EGFR ASV ins cells (setting [6]) was 449 nM; in the assay on WT EGFR cell line A-431 (setting [7]), 277 nM; in [1], 1080 nM; in [2] (setting [8]), 30 nM; in the assay with Ba/F3 EGFR NPH ins cells (setting [9]), 802 nM. Moreover, the half-maximal inhibitory concentration (IC50) (usually the point on the concentration scale where inhibition reaches its midpoint) on EGFR L858R&T790M is 19 nM; in [3], 382 nM; against WT EGFR, 1110 nM; in assay [4], 2630 nM; in assay [5], 308 nM.
Consider `C=CC(=O)Nc1cc(Nc2ncnc(Nc3cnc(C)cc3C(C)(C)O)n2)c(OC)cc1N(C)CCN(C)C` [Compound 6, N-(2-((2-(dimethylamino)ethyl)(methyl)amino)-5-(4-(4-(2-hydroxypropan-2-yl)-6-methylpyridin-3-ylamino)-1,3,5-triazin-2-ylamino)-4-methoxyphenyl) acrylamide], for which the GI50 with DB cells was above 3000 nM; with Ba/F3 EGFR ASV ins cells (setting [6]) it was 250 nM; in the assay with WT EGFR cell line A-431 (setting [7]), 64.7 nM; in [1] it was 534 nM; in assay [2] (setting [8]) it was 93.7 nM; in the assay on TMD-8 cells, 335 nM. Besides, the GI50 stood at 289 nM in the assay with Ri-1 cells, 625 nM in the assay on Ba/F3 EGFR NPH ins cells (setting [9]) and 210 nM with OCI-LY-10 cells. Also, the values for the half-maximal inhibitory concentration (IC50) in assay [3], in assay [4] and in assay [5] were 97.3 nM, 381 nM and 191 nM, respectively.
As for `C=CC(=O)Nc1cc(Nc2ncnc(Nc3ccccc3C(C)(C)O)n2)c(OC)cc1N1CCC[C@@H](N(C)C)C1` [Compound 1, (R)-N-(2-(3-(dimethylamino)piperidin-1-yl)-5-(4-(2-(2-hydroxypropan-2-yl)phenylamino)-1,3,5-triazin-2-ylamino)-4-methoxyphenyl)acrylamide], the GI50 in the assay on Ba/F3 EGFR ASV ins cells (setting [6]) is 926 nM; with WT EGFR cell line A-431 (setting [7]), 334 nM; in [1], 905 nM; in assay [2] (setting [8]) it was 282 nM; in the assay on Ba/F3 EGFR NPH ins cells (setting [9]), 999 nM. Moreover, the half-inhibitory concentration (IC50) at EGFR L858R&T790M amounted to 5.2 nM; in assay [3], 318 nM; against WT EGFR, 599 nM; in assay [4] it was 423 nM; in assay [5], 386 nM.
Regarding `C=CC(=O)Nc1cc(Nc2ncc(OC)c(Nc3cc(Cl)c(F)cc3C(C)(C)O)n2)c(OC)cc1N(C)CCN(C)C` [Compound 81, N-(5-(4-(5-chloro-4-fluoro-2-(2-hydroxypropan-2-yl)phenylamino)-5-methoxypyrimidin-2-ylamino)-2-((2-(dimethylamino)ethyl)(methyl)amino)-4-methoxyphenyl)acrylamide], the 50% growth inhibitory concentration (GI50) stood at 149 nM in the assay on Ba/F3 EGFR ASV ins cells (setting [6]); 35.7 nM in the assay with WT EGFR cell line A-431 (setting [7]); 354 nM in [1]; 4.6 nM in [2] (setting [8]); 136 nM with Ba/F3 EGFR NPH ins cells (setting [9]). The concentration for half-maximal inhibition (IC50) turned out to be 1.1 nM on EGFR L858R&T790M, 303 nM in [3] and 81.5 nM in [4].
Take `C=CC(=O)Nc1cc(Nc2ncnc(Nc3ccc(C(F)(F)F)cc3C(C)(C)O)n2)c(OC)cc1N(C)CCN(C)C` [Compound 13, N-(2-((2-(dimethylamino)ethyl)(methyl)amino)-5-(4-(2-(2-hydroxypropan-2-yl)-4-(trifluoromethyl)phenylamino)-1,3,5-triazin-2-ylamino)-4-methoxyphenyl)acrylamide]: the concentration for 50% growth inhibition (GI50) with DB cells was above 3000 nM; with Ba/F3 EGFR ASV ins cells (setting [6]), 53.3 nM; in the assay with WT EGFR cell line A-431 (setting [7]) it was 22.5 nM; in assay [1], 156 nM; in [2] (setting [8]), 15.3 nM; with TMD-8 cells it was 56.3 nM. Also, the GI50 is 120 nM in the assay with Ri-1 cells, 76.5 nM with Ba/F3 EGFR NPH ins cells (setting [9]) and 54.5 nM with OCI-LY-10 cells. Further, the IC50 in assay [3] was 36.4 nM; in assay [4] it was 40.1 nM; in assay [5], 22.9 nM.
In the case of `C=CC(=O)Nc1cc(Nc2ncnc(Nc3ccc(C)nc3C(C)(C)O)n2)c(OC)cc1N(C)CCN(C)C` [Compound 7, N-(2-((2-(dimethylamino)ethyl)(methyl)amino)-5-(4-(2-(2-hydroxypropan-2-yl)-6-methylpyridin-3-ylamino)-1,3,5-triazin-2-ylamino)-4-methoxyphenyl) acrylamide], the GI50 was above 3000 nM with DB cells; 145 nM with Ba/F3 EGFR ASV ins cells (setting [6]); 37.9 nM in the assay with WT EGFR cell line A-431 (setting [7]); 161 nM in [1]; 25 nM in assay [2] (setting [8]); 188 nM in the assay on TMD-8 cells. Moreover, the GI50 with Ri-1 cells is above 3000 nM; in the assay with Ba/F3 EGFR NPH ins cells (setting [9]) it was 212 nM; in the assay with OCI-LY-10 cells, 130 nM. In addition, the IC50 in [3] was 19.7 nM; in assay [4] it was 46.6 nM; in assay [5] it was 40.5 nM.
Take `C=CC(=O)Nc1cc(Nc2ncnc(Nc3ccccc3C3(O)COC3)n2)c(OC)cc1N(C)CCN(C)C` [Compound 10, N-(2-((2-(dimethylamino)ethyl)(methyl)amino)-5-(4-(2-(3-hydroxyoxetan-3-yl)phenylamino)-1,3,5-triazin-2-ylamino)-4-methoxyphenyl)acrylamide]: the 50% growth inhibitory concentration (GI50) is above 3000 nM in the assay with DB cells; 198 nM in the assay with Ba/F3 EGFR ASV ins cells (setting [6]); 79.4 nM in the assay on WT EGFR cell line A-431 (setting [7]); 274 nM in assay [1]; 76.3 nM in assay [2] (setting [8]); above 3000 nM in the assay with TMD-8 cells. Also, the GI50 is above 3000 nM in the assay with Ri-1 cells, 189 nM in the assay with Ba/F3 EGFR NPH ins cells (setting [9]) and above 3000 nM with OCI-LY-10 cells. Besides, the IC50 was found to be 231 nM in assay [3], 119 nM in assay [4] and 73.4 nM in assay [5].
Take `C=CC(=O)Nc1cc(Nc2nccc(Nc3cc(Cl)c(F)cc3C(C)(C)O)n2)c(OC)cc1N(C)C[C@H]1C[C@H](C)CN1C` [Compound 90, N-(5-(4-(5-chloro-4-fluoro-2-(2-hydroxypropan-2-yl)phenylamino)pyrimidin-2-ylamino)-2-((((2R,4S)-1,4-dimethylpyrrolidin-2-yl)methyl)(methyl)amino)-4-methoxyphenyl) acrylamide formic acid salt]: the GI50 was above 3000 nM in the assay on DB cells; 83.1 nM in the assay with Ba/F3 EGFR ASV ins cells (read-out: EGFR Exon20 ASV insertion GI50 (nM)); 59.4 nM with WT EGFR cell line A-431 (read-out: EGFR WT A431 GI50 (nM)); 284 nM in assay [1]; 6.1 nM in [2] (read-out: EGFR L858R and T790M mutation GI50 (nM)); 45 nM in the assay with TMD-8 cells. Moreover, the values for the GI50 in the assay on Ri-1 cells, with Ba/F3 EGFR NPH ins cells (read-out: EGFR Exon20 NPH insertion GI50 (nM)) and in the assay with OCI-LY-10 cells were 83.8 nM, 76.4 nM and 82.7 nM, respectively. Besides, the concentration for half-maximal inhibition (IC50) in [3] was 27.6 nM; in [4] it was 30.8 nM; in [5], 57.2 nM.
`C=CC(=O)Nc1cc(Nc2ncnc(Nc3cc(F)c(F)cc3C(C)(C)O)n2)c(OC)cc1N(C)CCN1CCCCC1` [Compound 24]: the 50% growth inhibitory concentration (GI50) is above 3000 nM in the assay on DB cells; 101 nM in the assay with Ba/F3 EGFR ASV ins cells (setting [6]); 55.5 nM in the assay on WT EGFR cell line A-431 (setting [7]); 303 nM in assay [1]; 23 nM in assay [2] (setting [8]); 107 nM with TMD-8 cells. The results for the GI50 in the assay with Ri-1 cells, in the assay with Ba/F3 EGFR NPH ins cells (setting [9]) and in the assay with OCI-LY-10 cells were 415 nM, 142 nM and 324 nM, respectively. The IC50 was found to be 49 nM in assay [3], 65 nM in assay [4] and 30 nM in [5].
